From paper PMC9343874, “Comparative Pharmacokinetics of Cinobufacini Capsule and Injection by UPLC-MS/MS” (Frontiers in Pharmacology, 2022)
Like-named read-outs stand apart in the source and are kept apart here.

Assays:
[1] = Pharmacokinetic study in rats after intravenous administration of cinobufacini injection (UPLC-MS/MS of plasma); type: in vivo, rat; details: for concentrations in most rat plasma samples relative to LLOQ: after intravenous administration of cinobufacini injection, pharmacokinetic parameters could not be calculated; for detection in rat plasma: cinobufacini injection group, intravenous
Procedure: Male Sprague–Dawley rats (weighing 200–220 g) of SPF grade were offered by Sippr/BK laboratory Animal, Corp., Ltd. (Shanghai, China) and fed in the Laboratory Animal Center of the Shanghai University of Traditional Chinese Medicine. All the rats were kept under environmentally controlled conditions with constant temperature (22–24°C) and humidity (60–65%). The animal experiment program in the present research was approved by the Animal Committee of the Shanghai University of Traditional Chinese Medicine (PZSHUTCM210618012).
An Agilent 1290 liquid chromatographic system includes a G4220A quaternary pump, a G1326C column incubator, a G4226A automatic sampler, and a G1330B degasser. The column temperature was set to 35°C. A measure of 5 µL of samples were separated in an Agilent SB-C18 column (2.1 mm ×50 mm, 1.8 μm) and eluted at 0.3 ml/min, followed by gradient elution with water (0.1% V/V formic acid) (A) and acetonitrile (B) (0–1 min, 20%–20% B; 1–3.5 min, 20%–80% B; 4–4.1 min, 80%-20% B; 4.1–6 min, 20% B). The total run time was 6 minutes.
An Agilent 1290 Infinity series UPLC system was combined with an Agilent 6460 series triple quadrupole mass spectrometer (Agilent Technologies, Santa Clara, CA, United States) to quantify all 13 analytes in an ESI-positive ionization mode. Quantitative analysis was performed in an MRM mode. The mass spectrum conditions were as follows: capillary voltage, 4000V; drying gas (N2), gas flow rate: 10 L/min; sprayer, 30 psi; gas temperature 350°C; The delta EMV (+) 200 V; collision gas (N2); dwell time, 25 ms. Agilent’s MassHunter Workstation software was used for data collection, peak area calculation, and quantitative analysis.
A measure of 50 µL of the plasma sample was mixed with 10 µL of the internal standard solution (345 ng/ml) in a 1.5-ml centrifuge tube and vortexed for 5 min. The samples were extracted by 500 µL of ethyl acetate for 5 min and centrifuged at 4°C for 10 min (18000 rpm). All the supernatants were collected into another 1.5-ml centrifuge tube, dried under a gentle stream of nitrogen at 37°C, and then added with 50 µL of 80% methanol for resolution. The resolution samples were centrifuged at 4°C for 10 min (18000 rpm), and 5 µL supernatant was extracted and injected for analysis.
Twenty-four male Sprague–Dawley rats (weigh 200–220 g) were divided into four groups with six rats in each group randomly, including three capsule groups at three different doses and one injection group. In the instructions for cinobufacini capsule and injection, the clinical dosage for adults is 2 g per 70 kg orally and 20 ml per 70 kg intravenously, converting to rat doses of 180 mg/kg and 1.8 ml/kg, respectively.
In the pre-experiments, we compared cinobufacini capsule of 180 mg/kg (one-time clinical dose) and 900 mg/kg (five times of clinical dose) and Cinobufacini injection of 1.8 ml/kg, but concentrations of some compounds in plasma were too low and difficult to be quantified. […] The experimental rats were led to fast the night and were free to get access to water for 12 h before the pharmacokinetic study. After administration, blood samples (approximately 150 μL) of rats were collected via retro-orbital sinus into heparinized centrifuge tubes at 0.05, 0.083, 0.25, 0.5, 0.75, 1, 2, 4, 6, 8, and 10 h. After centrifugation at 5,000 rpm for 10 min, the plasma was transferred to 1.5-ml polypropylene tubes and stored at −80°C until UPLC-MS/MS analysis.
GraphPad Prism software (version 8.0.2) was used to draw the mean plasma concentration–time curves of all analytes. The pharmacokinetic parameters were calculated by DAS 3.2.8 software. Meanwhile, the pharmacokinetic data on rats were presented as mean ± standard deviation (SD). Differences of pharmacokinetic parameters between groups were analyzed by the t-test using SPSS software (version 26.0). Differences were considered significant statistically when the p-values were <0.05 and very significant statistically when the p-values were <0.01.

[2] = Pharmacokinetic study in rats after oral administration of cinobufacini capsule (UPLC-MS/MS of plasma); type: in vivo, rat; details: for AUC(0-inf) / AUC(0-t) / Cmax / Tmax / CL/F / MRT last / MRT inf / half-life / Vd/F: male, Sprague-Dawley, in vivo, rat plasma, mean ± SD, n = 6; for CL/F: read-out: CLz/F (converted); for MRT last: read-out: MRT0-t; for MRT inf: read-out: MRT0-∞; for half-life: read-out: T1/2z (converted); for Vd/F: read-out: Vz/F
Outline: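 Male SD rats (200–220 g), fasted 12 h, six per group; cinobufacini capsule given orally at three doses or injection intravenously. Retro-orbital plasma sampled 0.05–10 h, extracted with ethyl acetate plus internal standard, quantified by UPLC-MS/MS (ESI+, MRM); parameters calculated by non-compartmental-style software as mean ± SD.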

[3] = Stability of analytes in rat plasma QC samples under storage conditions; type: physicochemical; details: n = 6; for Stability during 24 h at 4°C, RE: post-treatment storage in autosampler; for −80°C for 30 days, RE / Three freeze–thaw cycles, RE: rat plasma; for −80°C for 30 days, RE: long-term; for Three freeze–thaw cycles, RE: −80°C to room temperature
Outline: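 QC samples at low, medium and high levels (n=6) were tested after 24 h in the autosampler at 4 °C, after three freeze–thaw cycles from −80 °C to room temperature, and after 30 days at −80 °C. Concentrations were read from daily calibration curves. Stability was accepted when RE and RSD were within ±15% of nominal.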

[4] = oral cinobufacini capsule 0.9 g/kg (low)
[5] = oral cinobufacini capsule 1.8 g/kg (medium)
[6] = oral cinobufacini capsule 3.6 g/kg (high)
[7] = high QC level (249.58–250.28 ng/ml)
[8] = medium QC level (49.92–50.06 ng/ml)

| SMILES | concentrations in most rat plasma samples relative to LLOQ [1] | detection in rat plasma [1] | AUC(0-inf) [2, 4] [ng·h/mL] | AUC(0-t) [2, 4] [ng·h/mL] | Cmax [2, 4] [ng/mL] | Tmax [2, 4] [h] | CL/F [2, 4] [mL/min/kg] | MRT last [2, 4] [h] | MRT inf [2, 4] [h] | half-life [2, 4] [h] | Vd/F [2, 4] [L/kg] | AUC(0-inf) [2, 5] [ng·h/mL] | AUC(0-t) [2, 5] [ng·h/mL] | Cmax [2, 5] [ng/mL] | Tmax [2, 5] [h] | CL/F [2, 5] [mL/min/kg] | MRT last [2, 5] [h] | MRT inf [2, 5] [h] | half-life [2, 5] [h] | Vd/F [2, 5] [L/kg] | further results |
| --- | --- | --- | --- | --- | --- | --- | --- | --- | --- | --- | --- | --- | --- | --- | --- | --- | --- | --- | --- | --- | --- |
| C[C@]12CC[C@H](O)C[C@H]1CC[C@@H]1[C@@H]2[C@H](O)C(=O)[C@]2(C)[C@@H](c3ccc(=O)oc3)CC[C@]12O [ABG, arenobufagin] | far below the LLOQs | could be detected | 15.5 ± 4.73 | 15.5 ± 4.73 | 13.8 ± 6.4 | 0.45 ± 0.27 | 109 | 1.44 ± 0.58 | 1.47 ± 0.6 | 0.82 ± 0.66 | 8.01 ± 5.68 | 45.9 ± 13.1 | 44.1 ± 10.6 | 36.7 ± 13.1 | 0.32 ± 0.12 | 71.2 | 1.49 ± 1.03 | 1.74 ± 1.29 | 0.64 ± 0.16 | 4.2 ± 1.25 | AUC(0-inf) [2, 6]: 87.6 ± 27.8 ng·h/mL; AUC(0-t) [2, 6]: 87.3 ± 27.4 ng·h/mL; Cmax [2, 6]: 77.9 ± 24.2 ng/mL; Tmax [2, 6]: 0.32 ± 0.12 h; CL/F [2, 6]: 77.5 mL/min/kg; MRT last [2, 6]: 1.2 ± 0.26 h; MRT inf [2, 6]: 1.23 ± 0.31 h; half-life [2, 6]: 0.89 ± 0.64 h; Vd/F [2, 6]: 5.66 ± 3.45 L/kg; Stability during 24 h at 4°C, RE [3, 7]: −4.1%; Stability during 24 h at 4°C, RE ([3]; low QC level (4.99–5.00 ng/ml)): 7.4%; Stability during 24 h at 4°C, RE [3, 8]: −5.3%; −80°C for 30 days, RE [3, 7]: 2.3%; −80°C for 30 days, RE ([3]; low QC level (4.99–5.00 ng/ml)): 7.1%; −80°C for 30 days, RE [3, 8]: 8.3%; Three freeze–thaw cycles, RE [3, 7]: 0.7%; Three freeze–thaw cycles, RE ([3]; low QC level (4.99–5.00 ng/ml)): 2.5%; Three freeze–thaw cycles, RE [3, 8]: 3.3% |
| C[C@]12CC[C@H](O)C[C@H]1CC[C@@H]1[C@@H]2CC[C@]2(C)[C@@H](c3ccc(=O)oc3)CC[C@]12O [BF, bufalin] | far below the LLOQs | could be detected | 143 ± 79.4 | 139 ± 71.9 | 74.7 ± 30.7 | 0.25 | 26.2 | 2.04 ± 0.62 | 2.19 ± 0.9 | 1.09 ± 0.91 | 1.81 ± 0.56 | 317 ± 134 | 310 ± 131 | 189 ± 43.2 | 0.43 ± 0.12 | 21.5 | 1.45 ± 0.24 | 1.59 ± 0.49 | 1.2 ± 0.62 | 2.15 ± 1.21 | AUC(0-inf) [2, 6]: 461 ± 90.4 ng·h/mL; AUC(0-t) [2, 6]: 457 ± 91.2 ng·h/mL; Cmax [2, 6]: 322 ± 55.5 ng/mL; Tmax [2, 6]: 0.46 ± 0.17 h; CL/F [2, 6]: 27.3 mL/min/kg; MRT last [2, 6]: 1.39 ± 0.43 h; MRT inf [2, 6]: 1.49 ± 0.55 h; half-life [2, 6]: 1.27 ± 0.72 h; Vd/F [2, 6]: 3.02 ± 2.01 L/kg; time to reach maximum plasma concentration (Cmax) ([2]; rats, after gavage administration of cinobufacini capsule): ≤ 60 min; Stability during 24 h at 4°C, RE [3, 7]: −8.5%; Stability during 24 h at 4°C, RE ([3]; low QC level (4.99–5.00 ng/ml)): 3.3%; Stability during 24 h at 4°C, RE [3, 8]: −8.6%; −80°C for 30 days, RE [3, 7]: 1.4%; −80°C for 30 days, RE ([3]; low QC level (4.99–5.00 ng/ml)): 8.7%; −80°C for 30 days, RE [3, 8]: −12.6%; Three freeze–thaw cycles, RE [3, 7]: 0.8%; Three freeze–thaw cycles, RE ([3]; low QC level (4.99–5.00 ng/ml)): −7.7%; Three freeze–thaw cycles, RE [3, 8]: −10.1% |
